{"source": "patent US9597342B2", "about": "(UWM Research Foundation, Inc., priority 2011, dated 2017)", "origin": "cited, not measured here", "target": "all four diazepam-sensitive GABAA receptors", "conditions": "Huang et al., J. Med. Chem. 2000; cited from earlier work", "data": [{"smiles": "CN1C(=O)CN=C(c2ccccc2)c2cc(Cl)ccc21", "note": "[diazepam]", "values": [{"measurement": "Ki", "value": "< 25", "unit": "nM"}]}]}
